Source: patent US20050106635A1, “Compositions and methods for regulating thyroid hormone metabolism and cholesterol and lipid metabolism via the nuclear receptor car” (priority 2002, published 2005)

Legend:
[1] = tested on: genes involved in hepatic thyroid hormone conjugation and transport; test: RTQ-PCR of thyroid hormone metabolism genes in liver of TCPOBOP-treated mice; type: in vivo, mouse; conditions: 1 mg/kg i.p.
[2] = tested on: T4; conditions: rats; TCPOBOP at high doses; cited from earlier work
[3] = tested on: mouse liver genes differentially expressed in response to CAR activation; test: Affymetrix GeneChip analysis of mouse liver genes differentially expressed after TCPOBOP treatment; type: in vivo
Method: A global analysis of mouse liver genes differentially expressed in response to CAR activation was performed. Changes in mRNA steady state levels were assessed using AFFYMETRIX® chip technology. AFFYMETRIX® GeneChip murine genome assays (Mu11k set), representing greater than 13,000 full-length genes and EST clusters, were used. The primary sequence sources for this set were combined Unigene and TIGR databases. […] TCPOBOP is a potent and selective activator of mouse CAR and a useful chemical tool for in vivo differential gene expression studies.
(§1) In these experiments, three mice were treated with 1 mg/kg TCPOBOP in 5% dimethyl sulfoxide (DMSO) and corn oil, intraperitoneally. Control mice (n—3) received vehicle alone. Each mouse received two injections at 24 hour intervals. Livers were harvested after the second injection. Thus, total treatment time was 28 hours. Total mRNA was isolated from the livers using the Trizol method and probes for hybridization to the Affymetrix chips were prepared from the total mRNA. Results were analyzed by Affymetrix microarray Suite version 4.0 software.

[4] = tested on: mouse sulfotransferase genes; test: Northern blot analysis of sulfotransferase mRNAs in liver of TCPOBOP-treated mice; type: in vivo; conditions: 1 mg/kg i.p.
[5] = tested on: mouse sulfotransferase genes; test: Effect of TCPOBOP on expression of the known mouse sulfotransferase genes (method not specified); type: in vivo; conditions: mice, liver
Method: as §1
Since sulfotransferase activity is important in thyroid metabolism, the effect of TCPOBOP on expression of all of the known mouse sulfotransferase genes was examined. The sulfotransferase set examined included N-SULT, SULT-X1, SULT-X2, aryl sulfotransferase, phenyl sulfotransferase, hydroxysteroid sulfotransferase, SULT-B1, and SUTL1E1. Three of these eight sulfotransferase genes were induced by TCPOBOP. […] Sulfotransferase activity coupled with deiodinase type I activity caused an increased proportion of T4 to be converted to rT3 rather than T3.
The expression of several genes examined in the TCPOBOP study was also examined. Of the sulfotransferase genes, SULT-X1, N-SULT, SULT 1E1, SULT 1B1 and aryl sulfotransferase were examined.

[6] = mice, 1 mg/kg i.p., two injections, liver, 28 hours, Affymetrix chip data

## Clc1cnc(Oc2ccc(Oc3ncc(Cl)cc3Cl)cc2)c(Cl)c1 [TCPOBOP, 1,4-bis-[2,-(3,5-dichloropyridyloxy)] benzene]
[1]
  expression of the basolateral transporter mrp3: increased the expression
[1]; RTQ-PCR
  GST mu1-1 increase: 2.7 fold
  GST mu5-5 increase: 4.7 fold
  GST theta 1-1 increase: 2.7 fold
  GST-Y increase: 7.5 fold
  SULT-X2 increase: 30 fold
  UDP-glucuronysyl transferase 1A1 increase: 1.6 fold
[2]
  circulating levels of T4: decreased circulating levels of T4
  glucuronidation of T4: increase in glucuronidation of T4
[3]; mice, 1 mg/kg i.p., two injections at 24 hour intervals, liver, total treatment time 28 hours
  number of genes (of more than 13,000) displaying a 2-fold or greater change in expression: 264 genes
[3]; [6]
  CYP2B10 mRNA upregulation in expression: 40 fold
  CYP3A1 mRNA upregulation in expression: 20 fold
  decrease in the gene encoding the Na+/K+ transporting ATPase: greater than 2 fold
[3]; mouse liver, in vivo differential gene expression study
  activation of the CAR nuclear receptor: Selective and potent activation
[4]
  N-SULT increase: 11.5 fold
  SULT-X1 increase: 10.0 fold
[5]
  SULT-1B1 mRNA induction: not induced
  SULT-1E1 mRNA induction: not induced
  aryl sulfotransferase mRNA induction: not induced
